Values quoted from earlier work, collected in patent publication US11395831B2, “Combination products of tobramycin compounds and dexameihasone compounds” (Somerset Therapeutics, LLC, priority 2020, dated 2022).
Values after ≈ are worked out from the molar mass of the structure shown.

In the case of `NC[C@H]1O[C@H](O[C@H]2[C@H](O)[C@@H](O[C@H]3O[C@H](CO)[C@@H](O)[C@H](N)[C@H]3O)[C@H](N)C[C@@H]2N)[C@H](N)C[C@@H]1O` [tobramycin, 0-{3-amino-3-deoxy-α-D-gluco-pyranosyl-(1→4)}-0-{2,6-diamino-2,3,6-trideoxy-α-D-ribohexo-pyranosyl-(1→6)}-2-deoxystreptamine], the solubility in water is listed as 94 mg/mL (≈ 201 mM).
